Usually Cmax stands for the highest concentration seen after dosing. In general, Tmax refers to the time at which the peak concentration occurs. Usually half-life stands for the time needed for the level to fall by half in the phase considered. Low values mean rapid decline, high ones slow decline. What is called AUC(0-inf) is total exposure, with the tail of the curve extrapolated. A lower AUC(0-inf) goes with low exposure. In general, IC50 refers to the point on the concentration scale where inhibition reaches its midpoint.

One data set is described as follows: in vivo. As to conditions: beagle, dog, po, 2 mg/kg. As to the method: 1. 1.0 ml of intravenous blood was collected and placed in a Heparin test tube. The blood was centrifuged at RT 6000 rpm for 5 minutes to isolate the plasma, which was stored at −80° C.
2. 160 μL of acetonitrile were added to 40 μL of plasma sample for precipitation, and then the mixture was centrifuged at 3500 rpm for 5 minutes.
3. 100 μL of treated solution was taken, and the concentration of the test compound was analyzed by LC/MS/MS. The LC/MS/MS analytical instrument was AB Sciex API 4000.
Liquid Chromatography: • Condition of Liquid chromatography: Shimadzu LC-20AD pump • Chromatographic column: phenomenex Gemiu 5 μm C18 50×4.6 mm • Mobile phase: Solution A is 0.1% formic acid aqueous solution, and Solution B is acetonitrile • Flow rate: 0.8 mL/min • Elution time: 0-3.5 minutes, the eluent used was as follows: […]

The nature of a further data set: PK analysis in rats. The format is in vivo, Sprague Dawley (SD) rats. As to conditions: SD rats, single intragastric administration, 5 mg/10 ml/kg; for AUC(0-t): read-out: AUC0-8; for MRT inf: read-out: MRT0-∞.
Another data set deals with A431 cells. The experiment in a line: Inhibition of A431 cell proliferation (CellTiter-Glo). The format is cell-based. The note with it: Homo sapiens, A-431, 72 h, read-out: EGFR IC50 (nM) A431. The gist of the method: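 Viability read as CellTiter-Glo luminescence; IC50 by curve fitting of inhibition rates.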
On the technique in general: In ATP-based viability assays light output follows the ATP content of the culture.

Data set [1] has as its target exon 20 T790M mutant-type EGFR enzyme (Homo sapiens, UniProt P00533, T790M). The experiment in a line: Enzymologic experiment of T790M mutant-type EGFR (TR-FRET). The format is biochemical. As to conditions: for IC50: T790M EGFR enzyme, TR-FRET, ATP 1 to 10 uM; for Selectivity of wild-type/mutant-type: ratio WT IC50 / T790M IC50, enzyme. The gist of the method: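 Compound dilutions preincubated 10 min at room temperature; reaction ended with EDTA, then labeled antibody added for 1 h at room temperature. Inhibition rates derived from TR-FRET fluorescence signal, and IC50 obtained by curve fitting across concentrations.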
A general note: Time-resolved FRET reads energy transfer from a long-lived donor to a nearby acceptor.

The subject of another data set is NCI-H1975 cells. The experiment in a line: Inhibition of NCI-H1975 cell proliferation (CellTiter-Glo). As to conditions: for IC50: Homo sapiens, NCI-H1975, 72 h, NCI-H1975 cell proliferation, 72 hours, CellTiter-Glo, read-out: EGFR IC50 (nM) H1975; for Selectivity of wild-type/mutant-type: ratio A431 IC50 / H1975 IC50, cells. The format is cell-based.
Another data set addresses wild-type EGFR enzyme (Homo sapiens, UniProt P00533). The experiment in a line: Enzymologic experiment of wild-type (WT) EGFR (TR-FRET). As to conditions: ATP 0.1 to 5 uM. The format is biochemical. Summed up:
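Wild-type EGFR (0.1 to 1 nM final) preincubated with serially diluted compound for 10 minutes at room temperature; reaction stopped with EDTA, then labelled antibody added for 1 hour at room temperature. TR-FRET signal converted to inhibition rates; IC50 from curve fitting across concentrations.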

[2] abbreviates: Sprague-Dawley, rat, po, 5 mg/kg, plasma.

Chain of wild-type EGFR enzyme (P00533 25-1210): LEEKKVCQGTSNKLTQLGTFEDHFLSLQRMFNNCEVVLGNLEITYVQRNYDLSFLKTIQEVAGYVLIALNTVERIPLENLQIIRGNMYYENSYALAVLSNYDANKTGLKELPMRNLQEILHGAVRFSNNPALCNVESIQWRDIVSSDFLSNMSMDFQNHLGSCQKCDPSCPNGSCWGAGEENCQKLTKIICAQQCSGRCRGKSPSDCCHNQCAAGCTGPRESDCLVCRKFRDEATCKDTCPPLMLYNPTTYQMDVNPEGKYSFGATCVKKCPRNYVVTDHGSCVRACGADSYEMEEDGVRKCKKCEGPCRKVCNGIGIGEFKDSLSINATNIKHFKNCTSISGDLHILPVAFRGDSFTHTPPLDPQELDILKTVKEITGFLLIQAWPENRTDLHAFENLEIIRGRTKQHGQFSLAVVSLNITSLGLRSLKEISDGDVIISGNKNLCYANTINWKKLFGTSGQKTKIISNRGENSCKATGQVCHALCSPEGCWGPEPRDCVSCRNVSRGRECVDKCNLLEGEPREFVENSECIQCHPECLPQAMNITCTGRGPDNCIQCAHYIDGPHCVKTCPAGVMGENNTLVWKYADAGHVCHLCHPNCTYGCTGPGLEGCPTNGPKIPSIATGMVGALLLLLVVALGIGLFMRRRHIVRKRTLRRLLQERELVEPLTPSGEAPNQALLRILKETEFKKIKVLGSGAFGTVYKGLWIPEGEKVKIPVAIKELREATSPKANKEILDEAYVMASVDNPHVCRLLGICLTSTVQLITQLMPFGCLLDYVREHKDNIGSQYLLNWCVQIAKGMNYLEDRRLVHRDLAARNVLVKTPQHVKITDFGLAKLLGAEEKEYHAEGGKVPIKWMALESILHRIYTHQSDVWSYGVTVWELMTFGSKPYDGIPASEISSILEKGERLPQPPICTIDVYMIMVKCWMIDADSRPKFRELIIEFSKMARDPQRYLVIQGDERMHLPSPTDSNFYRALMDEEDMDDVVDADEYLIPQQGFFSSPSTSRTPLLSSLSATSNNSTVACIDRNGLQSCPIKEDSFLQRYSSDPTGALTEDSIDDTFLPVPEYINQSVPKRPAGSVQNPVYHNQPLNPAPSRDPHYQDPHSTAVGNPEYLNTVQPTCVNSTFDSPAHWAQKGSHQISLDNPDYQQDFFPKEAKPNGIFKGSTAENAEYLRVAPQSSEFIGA
Chain of exon 20 T790M mutant-type EGFR enzyme (P00533 25-1210 T790M): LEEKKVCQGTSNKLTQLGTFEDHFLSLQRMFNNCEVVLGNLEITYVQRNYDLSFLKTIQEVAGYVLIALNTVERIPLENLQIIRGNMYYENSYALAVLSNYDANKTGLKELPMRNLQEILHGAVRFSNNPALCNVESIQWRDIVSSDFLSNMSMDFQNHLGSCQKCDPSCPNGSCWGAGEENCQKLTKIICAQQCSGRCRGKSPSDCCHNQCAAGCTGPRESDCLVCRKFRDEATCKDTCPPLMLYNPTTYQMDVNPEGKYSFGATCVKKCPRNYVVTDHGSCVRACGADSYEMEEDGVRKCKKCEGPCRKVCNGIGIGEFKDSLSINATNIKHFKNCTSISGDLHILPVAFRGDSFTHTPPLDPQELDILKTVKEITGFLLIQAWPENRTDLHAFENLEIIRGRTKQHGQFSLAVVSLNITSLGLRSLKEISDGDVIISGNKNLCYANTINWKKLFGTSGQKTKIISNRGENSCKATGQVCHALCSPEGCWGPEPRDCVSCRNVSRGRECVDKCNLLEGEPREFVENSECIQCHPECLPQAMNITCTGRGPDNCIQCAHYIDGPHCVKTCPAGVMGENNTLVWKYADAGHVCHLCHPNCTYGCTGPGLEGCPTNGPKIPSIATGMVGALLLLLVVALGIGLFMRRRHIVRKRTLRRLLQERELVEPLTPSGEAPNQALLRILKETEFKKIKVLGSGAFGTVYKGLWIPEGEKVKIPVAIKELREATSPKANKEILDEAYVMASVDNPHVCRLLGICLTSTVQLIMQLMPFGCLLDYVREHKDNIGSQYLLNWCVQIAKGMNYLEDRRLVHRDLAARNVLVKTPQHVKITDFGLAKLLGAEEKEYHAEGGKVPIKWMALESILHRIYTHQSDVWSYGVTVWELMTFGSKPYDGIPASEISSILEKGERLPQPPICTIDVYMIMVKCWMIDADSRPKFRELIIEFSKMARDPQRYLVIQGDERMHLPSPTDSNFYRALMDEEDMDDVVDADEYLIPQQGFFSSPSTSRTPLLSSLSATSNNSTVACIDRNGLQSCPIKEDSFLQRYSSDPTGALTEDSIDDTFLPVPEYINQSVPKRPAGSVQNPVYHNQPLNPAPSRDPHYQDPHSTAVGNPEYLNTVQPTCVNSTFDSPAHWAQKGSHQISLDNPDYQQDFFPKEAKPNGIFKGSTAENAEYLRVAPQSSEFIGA
Description for PK analysis in rats: 1.0 ml of intravenous blood was collected and placed in a K2EDTA test tube. The blood was centrifuged at RT 6000 rpm for 5 minutes to isolate the plasma, which was stored at −80° C.
Liquid Chromatography: • Condition of Liquid chromatography Shimadzu LC-20AD pump • Chromatographic column: phenomenex Gemiu 5 μm C18 50×4.6 mm • Mobile phase: Solution A is 0.1% formic acid aqueous solution, and Solution B is acetonitrile • Flow rate: 0.8 mL/min • Elution time: 0-3.5 minutes, the eluent used was as follows:
Condition of mass spectrometer: positive ion electrospray ionization (ESI) mode. • Analysis results of liquid chromatography and mass spectrometry:

For `C=CC(=O)Nc1cc(Nc2nccc(-c3cn(C)c4ccccc34)n2)c(OC)cc1N(C)CCN(C)C` [AZD-9291, reference compound], in “in vivo”, the peak concentration (Cmax) was 81.4 ng/mL, the MRT inf came to 9 h, the Tmax stood at 1 h and the half-life is 5.4 h. In addition, in “PK analysis in rats” (plasma), the “t1/2” value was found to be 3.8 h. Further, in the data set “PK analysis in rats” (setting [2]), the area under the curve AUC(0-inf) was determined as 283 ng·h/mL, the Cmax was 58.3 ng/mL, the time to peak (Tmax) was determined as 2 h and the AUC(0-t) turned out to be 278 ng·h/mL. Besides, the MRT inf in “PK analysis in rats” (setting [2]) is 3.9 h.

Take `C=CC(=O)Nc1cc(Nc2nccc(-c3cn(C4CC4)c4ccccc34)n2)c(OC)cc1N(C)CCN(C)C` [Example 26, N-(5-((4-(1-cyclopropyl-1H-indol-3-yl)pyrimidin-2-yl)amino)-2-((2-(dimethylamino)ethyl)(methyl)amino)-4-methoxyphenyl)acrylamide]: in the data set on A431 cells, the IC50 was 509 nM. In “in vivo”, this compound registered a total exposure AUC(0-inf) of 5150 ng·h/mL, an AUC(0-t) of 4580 ng·h/mL, a peak concentration (Cmax) of 528 ng/mL and an MRT inf of 9.2 h. In the data set “in vivo”, the Tmax is 1 h and the half-life is 7 h. In data set [1], the IC50 came to 0.49 nM and the Selectivity of wild-type/mutant-type was 3.9. For the same compound, in the data set with NCI-H1975 cells, the IC50 was 2.44 nM and the Selectivity of wild-type/mutant-type is listed as 208.7. The IC50 on wild-type EGFR enzyme is 1.89 nM. Moreover, in the data set “PK analysis in rats”, the “metabolites in the plasma of rat” value is recorded as “only one metabolite”. For the same compound, in the data set “PK analysis in rats” (setting [2]), the AUC(0-inf) is 268 ng·h/mL, the Cmax was found to be 58.4 ng/mL, the Tmax is 0.5 h and the half-life is 2.3 h. Besides, in “PK analysis in rats” (setting [2]), the AUC(0-t) worked out at 235 ng·h/mL and the MRT inf stood at 3.9 h.

For `C=CC(=O)Nc1cc(Nc2nccc(-c3cn(S(=O)(=O)N(C)C)c4ccccc34)n2)c(OC)cc1N(C)CCN1CCCC1` [Example 142, N-(5-((4-(1-(N,N-dimethylsulfamoyl)-1H-indol-3-yl)pyrimidin-2-yl)amino)-4-methoxy-2-(methyl(2-(pyrrolidin-1-yl)ethyl)amino)phenyl)acrylamide], the IC50 is 119 nM in the data set on A431 cells, 0.23 nM in data set [1], 3.16 nM in the data set with NCI-H1975 cells and 1.8 nM on wild-type EGFR enzyme. Besides, the Selectivity of wild-type/mutant-type in data set [1] worked out at 7.83; in the data set with NCI-H1975 cells it was 37.53.

As to `C=CC(=O)Nc1cc(Nc2ncc(C(F)(F)F)c(-c3cn(S(=O)(=O)N(C)C)c4cc(OC)ccc34)n2)c(OC)cc1N(C)CCN(C)C` [Example 143, N-(2-((2-(dimethylamino)ethyl)(methyl)amino)-5-((4-(1-(N,N-dimethylsulfamoyl)-6-methoxy-1H-indol-3-yl)-5-(trifluoromethyl)pyrimidin-2-yl)amino)-4-methoxyphenyl)acrylamide], the IC50 amounted to 377 nM with A431 cells, 0.44 nM in data set [1], 8.29 nM in the data set on NCI-H1975 cells and 4.18 nM against wild-type EGFR enzyme. Further, the Selectivity of wild-type/mutant-type in data set [1] is 9.50; with NCI-H1975 cells it was 45.44.

Turning to `C=CC(=O)Nc1cc(Nc2nccc(-c3cn(C4CC4)c4ccccc34)n2)c(OC)cc1N(C)CCNC` [Metabolite of Example 26], in the data set “in vivo”, the AUC(0-t) was 2060 ng·h/mL, the Cmax was 126 ng/mL and the Tmax was 6 h. For the same compound, in the data set “PK analysis in rats” (setting [2]), the maximum concentration (Cmax) was found to be 16.4 ng/mL, the time of peak concentration (Tmax) was 0.5 h and the AUC(0-t) amounted to 77.4 ng·h/mL.

(Values after US10428081B2, “EGFR inhibitor, preparation method and use thereof” (Shanghai Hansoh Biomedical Co., Ltd., priority 2014, dated 2019).)
